According to patent publication US12286401B2, “Small molecules that sensitize HIV-1 infected cells to antibody dependent cellular cytotoxicity” (THE TRUSTEES OF THE UNIVERSITY OF PENNSYLVANIA, priority 2018, dated 2025):

Legend:
[1] = tested on: CH58TF infected primary CD4+ T-cells; assay: HIV+ patient sera/plasma recognition of CH58TF infected primary CD4+ T-cells (flow cytometry cell-surface staining); assay type: cell-based, HIV-1; conditions: for fold induction at 50 µM: Human immunodeficiency virus 1, T-cell, read-out: Fold Over DMSO (patient sera, n = 3); for recognition of infected cells by plasma from 15 HIV-1-infected individuals: 50 μM, 1:1000 diluted HIV+ plasma, result in words
Method in brief: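 Primary CD4+ T cells from PBMC infected with HIV-1 CH58TF for 48 h, then surface-stained with 1:1000 HIV+ plasma or 5 μg/ml 17b plus 50 μM MCG analogs or DMSO; Alexa Fluor 647 anti-human IgG detection by flow cytometry, infected cells gated p24+. Values are fold change over DMSO.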

[2] = tested on: primary CD4+ T cells infected with CH58 TF; assay: FACS-based ADCC assay with patient sera/plasma; assay type: cell-based, HIV-1; conditions: for fold induction at 50 µM: Human immunodeficiency virus 1, CD4+ T, read-out: Fold over DMSO (% ADCC with ps, n = 3); for ADCC responses against infected cells: 50 μM, 1/1,000 dilution of plasma from 15 HIV-1-infected individuals, result in words
Description: Measurement of antibody or serum-mediated ADCC is performed with a FACS-based assay as described in Prevost, “Influence of the Envelope gp120 Phe 43 Cavity on HIV-1 Sensitivity to Antibody-Dependent Cell-Mediated Cytotoxicity Responses,” 2017, J. Virol 91; Richard, “CD4 mimetics sensitize HIV-1-infected cells to ADCC,” 2015, Proc. Natl. Acad. Sci. USA, 112:E2687-2694; Richard, “Small CD4 Mimetics Prevent HIV-1 Uninfected Bystander CD4+ T Cell Killing Mediated by Antibody-dependent Cell-mediated Cytotoxicity,” 2016, EBioMedicine 3:122-134; Veillette, “The HIV-1 gp120 CD4-Bound Conformation Is Preferentially Targeted by Antibody-Dependent Cellular Cytotoxicity-Mediating Antibodies in Sera from HIV-1-Infected Individuals,” 2015, J. Virol., 89:545-551; Veillette, “Interaction with cellular CD4 exposes HIV-1 envelope epitopes targeted by antibody-dependent cell-mediated cytotoxicity,” 2014, J. Virol., 88:2633-2644; Richard, “Uninfected Bystander Cells Impact the Measurement of HIV-Specific Antibody-Dependent Cellular Cytotoxicity Responses,” 2018, MBio. 9(2): e00358-18; Richard, “BST-2 Expression Modulates Small CD4-Mimetic Sensitization of HIV-1-Infected Cells to Antibody-Dependent Cellular Cytotoxicity,” 2017, J. Virol. 91(11):e00219-17. This assay specifically measures ADCC activity against productively infected cells and is not affected by the confounding effect of uninfected bystander cells. See, Richard, “Uninfected Bystander Cells Impact the Measurement of HIV-Specific Antibody-Dependent Cellular Cytotoxicity Responses,” 2018, MBio., 9(2): e00358-18.
Briefly, primary CD4+ T cells isolated from healthy HIV-1-negative individuals or CEM-NKr cells are infected with HIV viruses. Forty-eight hours post-infection, cells are incubated with autologous PBMC (effector:target cell ratio of 10:1) in the presence of 1:1000 HIV+ sera dilution or anti-Env Abs (5 μg/mL) alone or in combination with increasing concentration of MCG analogs. Infected cells are identified by intracellular staining for HIV-1 p24 or GFP expression (for GFP expressing infectious molecular clones) and the percentage of cytotoxicity is calculated the following formula as described.
For cells infected with HIV-1 primary isolates, infected cells are identified by intracellular staining for HIV-1 p24. In that context, the percentage of cytotoxicity is calculated with the following formula by gating infected lived target cells: […]
The ADCC susceptibility of primary CD4+ T cells infected with CH58 TF mediated by HIV+ plasma+/−MCG analogs also was evaluated using a FACS-based assay as previously reported. See, Ding, 2016, J Virol., 90:2127-2134; and Richard, 2018, MBio 9.
Briefly, Primary CD4 T cells isolated from PBMC were infected with HIV-1CH58TF for 48 hours. For cell surface staining, 5 μg/ml 17b (FIG. 15A) or 1:1000 diluted HIV+ plasma (n=15) (FIG. 15B) were used in the presence of the different MCG analogs (50 μM), (+)-BNM-III-170 or with an equivalent volume of vehicle (DMSO). An Alexa Fluor 647-conjugated anti-human IgG secondary Ab was then used for fluorescent labeling. For ADCC (FIG. 15C), infected cells were used as target cells in a FACS-based ADCC assay that measures the killing of infected (p24+ cells). See, Madani, 2016, J. Virol., 90:5031-5046. The assay determines susceptibility to ADCC mediated by a 1/1,000 dilution of plasma from 15 HIV-1-infected individuals in the presence of the different MCG analogs (50 μM), (+)-BNM-III-170 (50 μM) or with an equivalent volume of vehicle (DMSO). Correlation between cell-surface staining with HIV+ plasma and ADCC was calculated using the Spearman rank correlation (FIG. 15D).

[3] = tested on: CH58TF infected primary CD4+ T-cells; assay: Recognition of HIV-1 infected cells by 17b (flow cytometry cell-surface staining); assay type: cell-based; conditions: for fold induction at 50 µM: Human immunodeficiency virus 1, T-cell, read-out: Fold Over DMSO (17b, n = 1); for recognition of infected cells by the anti-CoRBS 17b antibody: 50 μM, 5 μg/ml 17b, result in words
Method in brief: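 Primary CD4+ T cells infected 48 h with HIV-1 CH58TF, stained with 5 μg/ml 17b plus MCG analogs (50 μM), (+)-BNM-III-170 or DMSO vehicle. Detection by Alexa Fluor 647 anti-human IgG secondary and flow cytometry. Infected cells gated as p24+ living cells.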

## CS(=O)(=O)N1CCC[C@H](C(=O)Nc2ccc(F)cc2F)C1 [(S)-MCG-III-027-D04]
[1]
  fold induction at 50 µM: 1.24
[2]
  fold induction at 50 µM: 1.37
[3]
  fold induction at 50 µM: 1.17

## CS(=O)(=O)N1CCC[C@H](C(=O)Nc2cccc(F)c2)C1 [(S)-MCG-III-027-B03]
[1]
  fold induction at 50 µM: 1.44
[2]
  fold induction at 50 µM: 1.17
[3]
  fold induction at 50 µM: 1.05

## CS(=O)(=O)N1CCC[C@H](C(=O)Nc2cccc(Br)c2)C1 [(S)-MCG-III-027-B02]
[1]
  fold induction at 50 µM: 1.62
[2]
  fold induction at 50 µM: 0.74
[3]
  fold induction at 50 µM: 1.06

## COc1cccc(NC(=O)[C@H]2CCCN(S(C)(=O)=O)C2)c1 [(S)-MCG-III-027-B05]
[1]
  fold induction at 50 µM: 1.71
[2]
  fold induction at 50 µM: 0.361
[3]
  fold induction at 50 µM: 1.03

## CCS(=O)(=O)N1CCC[C@H](C(=O)Nc2ccc(Cl)c(F)c2)C1 [(S)-MCG-III-085-C01]
[1]
  fold induction at 50 µM: 3.28
[2]
  fold induction at 50 µM: 0.487
[3]
  fold induction at 50 µM: 5.7

## CS(=O)(=O)N1CCC[C@H](C(=O)Nc2ccccc2Cl)C1 [(S)-MCG-III-027-C01]
[1]
  fold induction at 50 µM: 1.06
[2]
  fold induction at 50 µM: 0.722
[3]
  fold induction at 50 µM: 1.14

## O=C(Nc1ccc(Cl)c(F)c1)C1CCCOC1 (stereo not drawn) [MCG-III-207]
[1]
  fold induction at 50 µM: 1.92
[2]
  fold induction at 50 µM: 1.59
[3]
  fold induction at 50 µM: 3.69

## Cn1cnc(S(=O)(=O)N2CCCC(C(=O)Nc3ccc(Cl)c(F)c3)C2)c1 (stereo not drawn) [MCG-III-157-B04]
[1]
  fold induction at 50 µM: 2.4
[2]
  fold induction at 50 µM: 1.73

## CS(=O)(=O)N1CCC[C@H](C(=O)Nc2cccc(Cl)c2)C1 [(S)-MCG-III-027-B01]
[1]
  fold induction at 50 µM: 1.37
[2]
  fold induction at 50 µM: 0.87
[3]
  fold induction at 50 µM: 1.04

## O=C(Nc1ccc(Cl)c(F)c1)C1CCCN(S(=O)(=O)c2ccccc2)C1 (stereo not drawn) [MCG-III-157-B03]
[1]
  fold induction at 50 µM: 3.73
[2]
  fold induction at 50 µM: 1.94

## CS(=O)(=O)N1CCC[C@H](C(=O)Nc2cccc(C(F)(F)F)c2)C1 [(S)-MCG-III-027-B04]
[1]
  fold induction at 50 µM: 1.47
[2]
  fold induction at 50 µM: 0.129
[3]
  fold induction at 50 µM: 1.01

## CS(=O)(=O)N1CCC[C@H](C(=O)Nc2ccc(Br)cc2)C1 [(S)-MCG-III-027-A02]
[1]
  fold induction at 50 µM: 2.08
[2]
  fold induction at 50 µM: 0.291
[3]
  fold induction at 50 µM: 1.65

## CCOC(=O)N1CCC[C@H](C(=O)Nc2ccc(Cl)c(F)c2)C1 [(S)-MCG-III-188-A02]
[1]
  recognition of infected cells by plasma from 15 HIV-1-infected individuals: enhanced the recognition of infected cells
  fold induction at 50 µM: 3.83
[2]
  ADCC responses against infected cells: enhanced ADCC responses
  fold induction at 50 µM: 0.867
[3]
  recognition of infected cells by the anti-CoRBS 17b antibody: enhanced the recognition of infected cells
  fold induction at 50 µM: 6.35

## Cn1cnc(S(=O)(=O)N2CCC[C@H](C(=O)Nc3ccc(Cl)c(F)c3)C2)c1 [(S)-MCG-III-116-A02]
[1]
  fold induction at 50 µM: 1.97
[2]
  fold induction at 50 µM: 1.86

## COC(=O)N1CCC[C@H](C(=O)Nc2ccc(Cl)c(F)c2)C1 [(S)-MCG-III-188-A01]
[1]
  recognition of infected cells by plasma from 15 HIV-1-infected individuals: enhanced the recognition of infected cells
  fold induction at 50 µM: 2.69
[2]
  ADCC responses against infected cells: enhanced ADCC responses
  fold induction at 50 µM: 2.27
[3]
  recognition of infected cells by the anti-CoRBS 17b antibody: enhanced the recognition of infected cells
  fold induction at 50 µM: 7.11

## CS(=O)(=O)N1CCC[C@H](C(=O)Nc2ccc(Cl)c(F)c2)C1 [(S)-MCG-III-027-D05]
[1]
  recognition of infected cells by plasma from 15 HIV-1-infected individuals: enhanced the recognition of infected cells
  fold induction at 50 µM: 2.83
[2]
  ADCC responses against infected cells: enhanced ADCC responses
  fold induction at 50 µM: 1.01
[3]
  recognition of infected cells by the anti-CoRBS 17b antibody: enhanced the recognition of infected cells
  fold induction at 50 µM: 2.22

## CCCNC(=O)N1CCC[C@H](C(=O)Nc2ccc(Cl)c(F)c2)C1 [(S)-MCG-IV-031-A05]
[1]
  recognition of infected cells by plasma from 15 HIV-1-infected individuals: enhanced the recognition of infected cells
[2]
  ADCC responses against infected cells: enhanced ADCC responses
[3]
  recognition of infected cells by the anti-CoRBS 17b antibody: enhanced the recognition of infected cells

## NCCNC(=O)N1CCC[C@H](C(=O)Nc2ccc(Cl)c(F)c2)C1 [(S)-MCG-IV-210]
[1]
  recognition of infected cells by plasma from 15 HIV-1-infected individuals: enhanced the recognition of infected cells
[2]
  ADCC responses against infected cells: enhanced ADCC responses
[3]
  recognition of infected cells by the anti-CoRBS 17b antibody: enhanced the recognition of infected cells

## CS(=O)(=O)N1CCC[C@H](C(=O)Nc2ccc(F)cc2)C1 [(S)-MCG-III-027-A03]
[1]
  fold induction at 50 µM: 1.52
[2]
  fold induction at 50 µM: 0.969
[3]
  fold induction at 50 µM: 1.12
